Patent US20170280728A1, “ANTIMICROBIAL COMPOSITIONS AND METHODS OF THEIR USE” (CMS TECHNOLOGY, INC.., priority 2014, published 2017)

Legend:
[1] = test system: General Bacteria (bacterial bird rinse); assay: General Bacteria Assay (Vivione RAPID-B Total Plate Count); type: cell-based
[2] = test system: Salmonella enterica serovar Anatum (ATCC #9270); assay: Salmonella Assay (liquid sanitizer exposure, log reduction); type: cell-based

## O=C(O)CC(O)(CC(=O)O)C(=O)O [citric acid @ 0.25%, citric acid]
[1]; pH at inoculation 2.43, Baseline 408
  Average Live: 75

## O.O.O.O.O.O=S(=O)([O-])[O-].[Cu+2] [Copper, Copper (II) sulfate pentahydrate]
[2]; 0 ppm chlorine, 10 ppm copper, Solution pH 6.0, Control Sample Baseline 7.02 log, n = 3
  Treated Sample Reduction: 3.83 log
[2]; at lower ppm
  antimicrobial effect (in words): limited antimicrobial effect
[1]; 5 ppm copper, pH at inoculation 5.68, Baseline 1562
  Average Live: 1633
[1]; 50 ppm copper, pH at inoculation 4.71, Baseline 1562
  Average Live: 1666
[1]; at 5 ppm and 50 ppm concentrations
  activity against bacteria (in words): negligible activity
